Data on 11 compounds can be found in US4661603A, “Imidazole derivatives” (Yoshitomi Pharmaceutical Industries, Ltd., priority 1982, dated 1987).

Data set [1] has as its target T1, prostacyclin synthetase (Rattus norvegicus, UniProt Q62969).
T1 construct: incubating the rat arota ring; from tissue; host or cells: rat aorta ring
T1 sequence (Q62969 1-501): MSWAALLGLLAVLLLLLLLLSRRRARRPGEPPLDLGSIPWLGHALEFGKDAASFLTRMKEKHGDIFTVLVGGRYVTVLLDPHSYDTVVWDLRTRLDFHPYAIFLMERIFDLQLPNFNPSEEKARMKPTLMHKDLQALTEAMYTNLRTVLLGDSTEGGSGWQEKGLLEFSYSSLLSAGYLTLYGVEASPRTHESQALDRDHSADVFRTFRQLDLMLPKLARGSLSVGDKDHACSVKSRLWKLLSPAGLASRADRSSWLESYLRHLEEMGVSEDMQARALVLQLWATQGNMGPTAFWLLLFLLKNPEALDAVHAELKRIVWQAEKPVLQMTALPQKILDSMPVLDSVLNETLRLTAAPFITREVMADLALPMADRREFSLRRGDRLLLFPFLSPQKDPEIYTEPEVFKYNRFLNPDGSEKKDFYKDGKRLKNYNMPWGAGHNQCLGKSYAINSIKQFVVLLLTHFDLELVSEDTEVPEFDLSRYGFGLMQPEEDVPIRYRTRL
In words: Inhibitory effect on prostacyclin synthetase. It is filed as biochemical. As to conditions: in vitro; rat aorta ring; 1.7 μM 14C-arachidonic acid, 37° C., 20 minutes; read-out: Inhibitory effect on prostacyclin synthetase (50% inhibitory molar concentration). How it is done: (§1) Effects of test compounds on thromboxane synthetase, cyclo-oxygenase and prostacyclin synthetase were examined in vitro by the following methods:
According to the method described in Journal of Pharmacology and Experimental Therapeutics, vol. 215, page 240 (1980), prostacyclin was formed by incubating the rat arota ring with 1.7 μM ^14 C-arachidonic acid at 37° C. for 20 minutes. Since prostacyclin is extremely short-lived, 6-keto-prostaglandin F1α, which is a stable degradation product of prostacyclin, was separated and assayed using the same method as (a).
The inhibitory activities of test compounds on prostacyclin synthetase were assessed by comparing the contents of 6-keto-prostaglandin F1α formed in the presence and the absence of test compounds.

Data set [2] is described as follows: Acute toxicity (oral LD50). The following applies: rat, in vivo, p.o., six male Wistar rats. How it is done:
According to the method described in Journal of Pharmacological and Experimental Therapeutics, vol. 96, page 99 (1949), the test compounds were orally administered to a group consisting of six male Wistar rats. The 50% lethal doses (LD50, mg/kg) were determined.

The target of data set [3] is T2, cyclo-oxygenase (Bos taurus, UniProt O62664).
T2 construct: bovine seminal vesicle microsomes; from tissue; host or cells: bovine seminal vesicle microsomes
T2 sequence (O62664 25-600): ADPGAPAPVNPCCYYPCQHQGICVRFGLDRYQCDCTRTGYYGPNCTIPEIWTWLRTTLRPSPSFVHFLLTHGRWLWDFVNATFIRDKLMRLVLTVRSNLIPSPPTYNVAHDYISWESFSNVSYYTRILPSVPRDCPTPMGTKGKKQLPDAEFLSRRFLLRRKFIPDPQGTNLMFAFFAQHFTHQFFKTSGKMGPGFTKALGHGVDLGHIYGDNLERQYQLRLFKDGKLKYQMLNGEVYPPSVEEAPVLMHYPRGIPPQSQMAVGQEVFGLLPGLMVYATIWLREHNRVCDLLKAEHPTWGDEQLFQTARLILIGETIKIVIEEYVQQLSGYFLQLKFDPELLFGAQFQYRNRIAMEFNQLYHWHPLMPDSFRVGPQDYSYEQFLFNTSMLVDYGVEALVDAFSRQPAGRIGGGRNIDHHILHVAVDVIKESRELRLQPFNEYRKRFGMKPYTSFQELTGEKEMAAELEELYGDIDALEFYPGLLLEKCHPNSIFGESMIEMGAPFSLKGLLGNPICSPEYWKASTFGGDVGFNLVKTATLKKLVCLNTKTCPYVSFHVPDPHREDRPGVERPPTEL
In words: Inhibitory effect on cyclo-oxygenase. It is filed as biochemical. The following applies: in vitro; bovine seminal vesicle microsomes; 104.3 μM 14C-arachidonic acid, 25° C., 10 minutes; read-out: Inhibitory effect on cyclo-oxygenase (50% inhibitory molar concentration). How it is done: as §1
According to the method described in Proceedings of National Academy of Sciences, U.S.A., vol. 71, page 3645 (1974), bovine seminal vesicle microsomes were incubated with 104.3 μM ^14 C-arachidonic acid at 25° C. for 10 minutes. Prostaglandin E2 thus formed was separated and assayed using the same method as (a).
The inhibitory activities of test compounds on cyclo-oxygenase were assessed by comparing the contents of prostaglandin E2 formed in the presence and absence of test compounds.

The subject of data set [4] is platelet aggregation. In words: Inhibitory activities on platelet aggregation (ex vivo, arachidonic acid, after oral administration to rabbits). It is filed as in vivo, rabbit. The following applies: Oryctolagus cuniculus, 1 h, blood one hour after administration, read-out: Inhibitory activities on platelet aggregation, Rate of inhibition. How it is done:
According to the method described in Journal of Physiology, vol. 162, page 67 (1962), the inhibitory activities of compounds of this invention on platelet aggregation were measured from the changes in transmittance with an aggregometer (Rikadenki Electronics Co., Japan).
Before and one hour after the oral administration of test compounds to rabbits, blood was collected. The blood was mixed with sodium citrate in the ratio of 9:1 by volume. Platelet rich plasma (PRP) was prepared by centrifuging the citrated blood at 1000 rpm for 10 minutes, and platelet poor plasma (PPP), by centrifuging the remaining citrated blood at 3000 rpm for 10 minutes.
The transmittance of aggregometer was adjusted to 0 and 100% with PRP and PPP, respectively. To 0.3 ml of a PRP sample was added 0.003 ml of arachidonic acid solution. The changes in transmittance of the mixture were measured using the aggregometer with stirring at 1200 rpm.
Inhibitory activities on platelet aggregation were assessed as % inhibition by comparing the rate of aggregation of treated PRP with that of blood collected before the oral administration of test compounds.

Data set [5] deals with T3, thromboxane synthetase (Homo sapiens, UniProt P24557).
T3 construct: incubating human platelet microsomes; from tissue; host or cells: human platelet microsomes
T3 sequence (P24557 1-533): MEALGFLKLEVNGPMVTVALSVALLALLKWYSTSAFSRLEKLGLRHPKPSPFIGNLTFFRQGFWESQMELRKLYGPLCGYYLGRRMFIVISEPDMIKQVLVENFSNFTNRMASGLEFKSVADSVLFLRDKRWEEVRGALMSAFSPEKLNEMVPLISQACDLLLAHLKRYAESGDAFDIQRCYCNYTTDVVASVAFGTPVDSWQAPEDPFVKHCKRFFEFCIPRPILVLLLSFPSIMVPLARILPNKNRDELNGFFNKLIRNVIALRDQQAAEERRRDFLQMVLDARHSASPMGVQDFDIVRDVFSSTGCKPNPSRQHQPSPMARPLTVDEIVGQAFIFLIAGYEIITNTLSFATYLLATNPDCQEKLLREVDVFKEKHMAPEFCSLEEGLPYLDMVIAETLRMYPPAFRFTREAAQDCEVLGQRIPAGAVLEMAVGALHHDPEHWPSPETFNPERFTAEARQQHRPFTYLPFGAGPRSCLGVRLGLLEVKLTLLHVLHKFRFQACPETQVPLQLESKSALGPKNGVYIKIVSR
In words: Inhibitory effect on thromboxane synthetase. It is filed as biochemical. As to conditions: in vitro; human platelet microsomes; 4.3 μM 14C-arachidonic acid, 25° C., 5 minutes; read-out: Inhibitory effect on thromboxane synthetase (50% inhibitory molar concentration). How it is done:
as §1
According to the method described in Journal of Biological Chemistry, vol. 252, page 5871 (1977), thromboxane was produced by incubating human platelet microsomes with 4.3 μM ^14 C-arachidonic acid at 25° C. for 5 minutes. Since thromboxane A2 is extremely short-lived, thromboxane B2, which is a stable degradation product of thromboxane A2, was assayed. The incubation mixture was extracted with ethyl acetate, and thromboxane B2 was separated on a thin-layer chromatogram. The zone of thromboxane B2 on a silica gel plate was detected with a radiochromatoscanner and scraped off. The radioactivities were determined with a liquid scintilation counter.
The inhibitory activities of test compounds on thromboxane synthetase were assessed by comparing the contents of thromboxane formed in the presence and the absence of test compounds.

The structures appear in SMILES notation. pIC50: −log10 of the molar value.

Consider `CCOC(=O)c1cc(C)c(C(O)c2cc(-n3ccnc3)ccc2C)c(C)c1` (stereo not drawn) [α-(2,6-dimethyl-4-ethoxycarbonylphenyl)-2-methyl-5-(1-imidazolyl)benzenemethanol], for which the pIC50 in data set [1] and in data set [3] was below 4.00 each time. In data set [2], the LD50 is above 1000 mg/kg. In addition, the inhibition at 10 mg/kg in data set [4] came to 100%.

With `Cc1cc(C)c(C(O)c2cc(-n3ccnc3)ccc2Cl)c(C)c1` (stereo not drawn) [α-(2,4,6-trimethylphenyl)-2-chloro-5-(1-imidazolyl) benzenemethanol], the pIC50 in data set [1] is below 3.00; in data set [5], 5.64; in data set [3] it was below 3.00. The compound further displayed an LD50 in data set [2] above 1000 mg/kg. Moreover, the inhibition at 10 mg/kg in data set [4] is 71%.

As for `Cc1ccc(-n2ccnc2)cc1C(O)c1c(C)cc(C(=O)O)cc1C` (stereo not drawn) [α-(2,6-dimethyl-4-carboxyphenyl)-2-methyl-5-(1-imidazolyl)benzenemethanol], the pIC50 was below 4.00 in data set [1], 7.66 in data set [5] and below 4.00 in data set [3]. This compound also displayed an LD50 in data set [2] above 1000 mg/kg. Also, the inhibition at 10 mg/kg in data set [4] came to 100%.

Regarding `COC(=O)c1cc(C)c(C(O)c2cc(-n3ccnc3)ccc2C)c(C)c1` (stereo not drawn) [α-(2,6-dimethyl-4-methoxycarbonylphenyl)-2-methyl-5-(1-imidazolyl)benzenemethanol], the pIC50 in data set [1] is below 4.00; in data set [5] it was 6.15; in data set [3] it was below 4.00. The same compound registered an LD50 in data set [2] above 1000 mg/kg. Besides, the inhibition at 10 mg/kg in data set [4] came out at 100%.

As to `Cc1cc(C)c(C(O)c2cccc(-n3ccnc3)c2)c(C)c1` (stereo not drawn) [α-(2,4,6-trimethylphenyl)-3-(1-imidazolyl)benzenemethanol], the figures for the pIC50 in data set [1], in data set [5] and in data set [3] were below 4.00, 6.47 and below 3.00, respectively. In data set [2], this compound returned an LD50 above 1000 mg/kg. Also, the inhibition at 10 mg/kg in data set [4] was 100%.

The compound `Cc1cc(C)c(C(O)c2cccc(-n3ccnc3)c2C)c(C)c1` (stereo not drawn) [α-(2,4,6-Trimethylphenyl)-2-methyl-3-(1-imidazolyl)benzenemethanol] registered an LD50 in data set [2] above 1000 mg/kg. Also, the inhibition at 10 mg/kg in data set [4] was 68%.

Turning to `Cc1ccc(-n2ccnc2)cc1C(O)c1c(C)cc(C(=O)OC(C)C)cc1C` (stereo not drawn) [α-(2,6-dimethyl-4-isopropoxycarbonylphenyl)-2-methyl-5-(1-imidazolyl)benzenemethanol], the pIC50 in data set [1] and in data set [3] was below 4.00 each time. The compound further came in with an LD50 in data set [2] above 1000 mg/kg. In data set [4], the inhibition at 10 mg/kg was determined as 76%.

Regarding `Cc1cc(C)c(C(O)c2cc(-n3ccnc3)ccc2C)c(C)c1` (stereo not drawn) [α-(2,4,6-trimethylphenyl)-2-methyl-5-(1-imidazolyl)benzenemethanol], the LD50 in data set [2] was above 1000 mg/kg. The pIC50 in data set [5] is 6.09. For the same compound, the inhibition at 10 mg/kg in data set [4] came to 100%.

On to `Cc1cc(C(=O)O)cc(C)c1C(O)c1cc(-n2ccnc2)ccc1Cl` (stereo not drawn) [α-(2,6-dimethyl-4-carboxyphenyl)-2-chloro-5-(1-imidazolyl)benzenemethanol], for which the figures for the pIC50 in data set [1], in data set [5] and in data set [3] were below 4.00, 7.28 and below 4.00, respectively. The LD50 in data set [2] was above 1000 mg/kg. Moreover, in data set [4], the inhibition at 10 mg/kg is 100%.

In data set [2], `Cc1cc(C)c(C(O)c2ccc(C)c(-n3ccnc3)c2)c(C)c1` (stereo not drawn) [α-(2,4,6-Trimethylphenyl)-4-methyl-3-(1-imidazolyl)benzenemethanol] registered an LD50 above 1000 mg/kg. Moreover, in data set [4], the inhibition at 10 mg/kg was found to be 88%.

In the case of `Cc1cc(C)c(C(O)c2ccc(-n3ccnc3)c(Cl)c2)c(C)c1` (stereo not drawn) [α-(2,4,6-trimethylphenyl)-3-chloro-4-(1-imidazolyl)benzenemethanol], the pIC50 in data set [1] is below 4.00; in data set [5] it was 6.74; in data set [3] it was below 4.00. Moreover, the LD50 in data set [2] is above 1000 mg/kg. Further, the inhibition at 10 mg/kg in data set [4] was 80%.

As a reminder, the LD50 is the dose expected to kill half of the subjects tested. Low values mean greater toxicity, high ones lower toxicity. A word on the inhibition: it is the share of the control response that was lost under treatment.
